Source: ChEMBL document CHEMBL1944632, “Synthesis, anti-HBV activity and renal cell toxicity evaluation of mixed phosphonate prodrugs of adefovir” (Eur J Med Chem, 2012)

Key:
[1] = Chemical stability of the compound assessed as drug decomposition at 1 mM in phosphate buffer at pH 7.4 after 24 hrs by HPLC analysis; format: physicochemical; conditions: read-out: Drug degradation
[2] = Cytotoxicity against human HepG2(2.2.15) cells infected with HBV DNA; format: cell-based
[3] = Selectivity index, ratio of CC50 for HepG2(2.2.15) infected with HBV DNA to EC50 for Hepatitis B virus infected in human HepG2(2.2.15) cells
[4] = Nephrotoxicity in human HK2 cells assessed as LDH release at 100 uM measured after 24 hrs; format: toxicity, cell-based; conditions: hk-2, 24 h
[5] = Cytotoxicity against human HK2 cells by MTT assay; format: cell-based, HK-2
[6] = Chemical stability of the compound assessed as drug decomposition at 1 mM in phosphate buffer at pH 2 after 24 hrs by HPLC analysis; format: physicochemical; conditions: read-out: Drug degradation
[7] = Nephrotoxicity in human HK2 cells assessed as LDH release at 1 uM measured after 24 hrs; format: toxicity, cell-based; conditions: hk-2, 24 h
[8] = Nephrotoxicity in human HK2 cells assessed as LDH release at 10 uM measured after 24 hrs; format: toxicity, cell-based; conditions: hk-2, 24 h
Hepatitis B virus [9] = experiment: Antiviral activity against Hepatitis B virus infected in human HepG2(2.2.15) cells assessed as inhibition of viral replication incubated for 2 days followed by wash out measured after 10 days by RT-PCR analysis; format: functional, organism-based
[10] = Half life in rat plasma at 0.2 mg after 24 hrs by HPLC analysis; format: ADME
[11] = Ratio of adefovir dipivoxil SI to compound SI for ratio of CC50 for HepG2(2.2.15) infected with HBV DNA to EC50 for Hepatitis B virus infected in human HepG2(2.2.15) cells; format: functional
Hepatitis B virus [12] = experiment: Ratio of adefovir dipivoxil to compound EC50 for Hepatitis B virus infected in human HepG2(2.2.15) cells assessed as inhibition of viral replication incubated for 2 days followed by wash out measured after 10 days by RT-PCR analysis; format: functional

| SMILES | degraded at 24 h, 1000 µM [1] | CC50 [2] | Ratio CC50/EC50 [3] | Activity [4] | CC50 [5] | degraded at 24 h, 1000 µM [6] | Activity [7] | Activity [8] | EC50 (Hepatitis B virus [9]) | half-life [10] | Ratio [11] | Ratio EC50 (Hepatitis B virus [12]) |
| --- | --- | --- | --- | --- | --- | --- | --- | --- | --- | --- | --- | --- |
| CC[C@H](C)[C@H](N)C(=O)OCCOP(=O)(COCCn1cnc2c(N)ncnc21)OCCCOC(=O)C(C)c1cccc(C(=O)c2ccccc2)c1 (some centres not stated) | 12.5% | 644 µM | 881.92 | 43.51% | 768 µM | 14.9% | 37.85% | 36.92% | 0.73 µM | – | – | – |
| CC(C(=O)OCCCOP(=O)(COCCn1cnc2c(N)ncnc21)OCCCSC(=O)[C@@H](N)C(C)C)c1cccc(C(=O)c2ccccc2)c1 (some centres not stated) | – | 1050 µM | 39.01 | – | – | – | – | – | 26.9 µM | – | – | – |
| CC[C@H](C)[C@H](N)C(=O)SCCCOP(=O)(COCCn1cnc2c(N)ncnc21)OCCCOC(=O)C(C)c1cccc(C(=O)c2ccccc2)c1 (some centres not stated) | – | 1000 µM | 22.29 | – | – | – | – | – | 44.9 µM | – | – | – |
| CC(C(=O)OCCCOP(=O)(COCCn1cnc2c(N)ncnc21)OCCCSC(=O)[C@@H](N)Cc1ccccc1)c1cccc(C(=O)c2ccccc2)c1 (some centres not stated) | – | 1000 µM | 33.47 | – | – | – | – | – | 29.8 µM | – | – | – |
| CC(C)Cc1ccc(C(C)C(=O)OCCCOP(=O)(COCCn2cnc3c(N)ncnc32)OCCOC(=O)[C@@H](N)C(C)C)cc1 (some centres not stated) | 7.8% | 577 µM | 65.56 | 36.87% | > 1000 µM | 9.6% | 35.41% | 36.25% | 8.8 µM | 1.5 h | – | – |
| CC[C@H](C)[C@H](N)C(=O)OCCOP(=O)(COCCn1cnc2c(N)ncnc21)OCCCOC(=O)C(C)c1ccc(CC(C)C)cc1 (some centres not stated) | 9.1% | 488 µM | 39.11 | 40.6% | > 1000 µM | 12.7% | 36.25% | 36.67% | 12.5 µM | 0.75 h | – | – |
| CC(C)Cc1ccc(C(C)C(=O)OCCCOP(=O)(COCCn2cnc3c(N)ncnc32)OCCCSC(=O)[C@@H](N)C(C)C)cc1 (some centres not stated) | – | 122 µM | 5.37 | – | – | – | – | – | 22.7 µM | – | – | – |
| CC[C@H](C)[C@H](N)C(=O)SCCCOP(=O)(COCCn1cnc2c(N)ncnc21)OCCCOC(=O)C(C)c1ccc(CC(C)C)cc1 (some centres not stated) | – | 157 µM | 3.14 | – | – | – | – | – | 50 µM | – | – | – |
| CC[C@H](C)[C@H](N)C(=O)OCCOP(=O)(COCCn1cnc2c(N)ncnc21)OCCCOC(=O)C(C)c1ccc(-c2ccccc2)c(F)c1 (some centres not stated) | 12.6% | 677 µM | 299.69 | 40.52% | > 1000 µM | 15.3% | 35.89% | 36.95% | 2.26 µM | 3.5 h | – | – |
| CC(C(=O)OCCCOP(=O)(COCCn1cnc2c(N)ncnc21)OCCOC(=O)[C@@H](N)Cc1ccccc1)c1ccc(-c2ccccc2)c(F)c1 (some centres not stated) | 10.3% | 568 µM | 170.21 | 42.71% | 906 µM | 14.7% | 34.68% | 35.95% | 3.34 µM | 2.05 h | – | – |
| CC[C@H](C)[C@H](N)C(=O)SCCCOP(=O)(COCCn1cnc2c(N)ncnc21)OCCCOC(=O)C(C)c1ccc(-c2ccccc2)c(F)c1 (some centres not stated) | – | 363 µM | 9.88 | – | – | – | – | – | 36.7 µM | – | – | – |
| CC(C(=O)OCCCOP(=O)(COCCn1cnc2c(N)ncnc21)OCCCSC(=O)[C@@H](N)Cc1ccccc1)c1ccc(-c2ccccc2)c(F)c1 (some centres not stated) | – | 202 µM | 4.12 | – | – | – | – | – | 48.9 µM | – | – | – |
| CC(C(=O)OCCCOP(=O)(COCCn1cnc2c(N)ncnc21)OCCOC(=O)[C@@H](N)C(C)C)c1cccc(C(=O)c2ccccc2)c1 (some centres not stated) | 8.3% | 866 µM | 1697.64 | 44.9% | 840 µM | 11.2% | 37.63% | 38.72% | 0.51 µM | 2.75 h | 4 | 2 |
| CC(C)(C)C(=O)OCOP(=O)(COCCn1cnc2c(N)ncnc21)OCOC(=O)C(C)(C)C [ADEFOVIR DIPIVOXIL] | 39.1% | 471 µM | 490.73 | 50.02% | 488 µM | 42.5% | 42.32% | 47.49% | 0.96 µM | 0.52 h | – | – |
